Source: paper PMC8815882, “Screening the pandemic response box identified benzimidazole carbamates, Olorofim and ravuconazole as promising drug candidates for the treatment of eumycetoma” (PLoS Neglected Tropical Diseases, 2022)
Like-named read-outs stand apart in the source and are kept apart here.

Test system: M. mycetomatis genome strain MM55
Assay: CLSI M38-A2 based in vitro susceptibility screening (XTT or resazurin), growth at fixed concentration
Type: cell-based, Madurella mycetomatis
Details: Madurella mycetomatis; for Percent fungal survival at 100 µM: replicate 2, read-out: Percentage survival at 100um, 100 uM A (second replicate column)
[1] = 25 uM, mean of replicates, MM55, read-out: Percentage survival at 25um, 25 uM mean
[2] = 25 uM, replicate A, MM55, read-out: Percentage survival at 25um, 25 um A
[3] = 25 uM, replicate B, MM55, read-out: Percentage survival at 25um, 25 uM B
[4] = 25 uM, replicate C, MM55, read-out: Percentage survival at 25um, 25 uM C
[5] = mean of replicates, MM55, read-out: Percentage survival at 100um, 100 uM mean
[6] = replicate 1, MM55, read-out: Percentage survival at 100um, 100 uM A
[7] = replicate 2, MM55, read-out: Percentage survival at 100um, 100 uM A
[8] = replicate 3, MM55, read-out: Percentage survival at 100um, 100 uM A
[9] = 25 uM, mean, read-out: Percentage survival at 25um, 25 uM mean
[10] = 25 uM, replicate A, read-out: Percentage survival at 25um, 25 um A
[11] = 25 uM, replicate B, read-out: Percentage survival at 25um, 25 uM B
[12] = 25 uM, replicate C, read-out: Percentage survival at 25um, 25 uM C
[13] = mean, read-out: Percentage survival at 100um, 100 uM mean
[14] = replicate (first column), read-out: Percentage survival at 100um, 100 uM A
[15] = replicate (second column), read-out: Percentage survival at 100um, 100 uM A
[16] = replicate (third column), read-out: Percentage survival at 100um, 100 uM A
[17] = 25 uM, mean of three replicates, read-out: Percentage survival at 25um, 25 uM mean
[18] = mean of three replicates, read-out: Percentage survival at 100um, 100 uM mean
[19] = replicate 1, read-out: Percentage survival at 100um, 100 uM A (first replicate column)
[20] = replicate 3, read-out: Percentage survival at 100um, 100 uM A (third replicate column)

## O=C(O)COc1cccc2c1CC[C@](O)(COC(=O)N(c1ccccc1)c1ccccc1)C2 [MMV1782352]
[1]
  activity at 25 µM: 89.4%
[2]
  activity at 25 µM: 92.5%
[3]
  activity at 25 µM: 96.3%
[4]
  activity at 25 µM: 79.5%
[5]
  activity at 100 µM: 88.8%
[6]
  activity at 100 µM: 91.1%
[7]
  activity at 100 µM: 97.6%
[8]
  activity at 100 µM: 77.7%

## CC(C)(C)NC(=O)[C@@H]1CN(Cc2cnc3occc3c2)CCN1C[C@@H](O)C[C@@H](Cc1ccccc1)C(=O)N[C@H]1c2ccccc2C[C@H]1O [MMV1782353]
[1]
  activity at 25 µM: 97.1%
[2]
  activity at 25 µM: 103%
[3]
  activity at 25 µM: 101%
[4]
  activity at 25 µM: 87.6%
[5]
  activity at 100 µM: 86.3%
[6]
  activity at 100 µM: 97%
[7]
  activity at 100 µM: 84.7%
[8]
  activity at 100 µM: 77.2%

## Nc1nc2c(Cc3cccnc3)c[nH]c2c(=O)[nH]1 [MMV1782355]
[2]
  activity at 25 µM: 97.7%
[5]
  activity at 100 µM: 88.4%
[6]
  activity at 100 µM: 88.7%
[7]
  activity at 100 µM: 105%
[8]
  activity at 100 µM: 71.4%
read-out: Percentage survival at 25um, 25 uM B
  activity at 25 µM: 95.7%
read-out: Percentage survival at 25um, 25 uM C
  activity at 25 µM: 78.5%
read-out: Percentage survival at 25um, 25 uM mean
  activity at 25 µM: 90.6%

## CN(O)C(=O)c1cc2c(CN3CCC[C@H]3C(N)=O)cn(Cc3ccc(F)cc3)c2cn1 [MMV1782386]
[1]
  activity at 25 µM: 91.7%
[2]
  activity at 25 µM: 95%
[3]
  activity at 25 µM: 96.1%
[4]
  activity at 25 µM: 84%
[5]
  activity at 100 µM: 86%
[6]
  activity at 100 µM: 87.4%
[7]
  activity at 100 µM: 91.4%
[8]
  activity at 100 µM: 79.3%

## CNc1nc(=O)[nH]cc1F [MMV1782388]
[9]
  activity at 25 µM: 81.1%
[10]
  activity at 25 µM: 88.9%
[11]
  activity at 25 µM: 76.2%
[12]
  activity at 25 µM: 78.1%
[13]
  activity at 100 µM: 93.4%
[14]
  activity at 100 µM: 99.3%
[15]
  activity at 100 µM: 85.3%
[16]
  activity at 100 µM: 95.6%

## Cc1cc(C)n(O)c(=O)c1 [MMV1782389]
[9]
  activity at 25 µM: 81.5%
[10]
  activity at 25 µM: 87.4%
[11]
  activity at 25 µM: 82.9%
[12]
  activity at 25 µM: 74.1%
[13]
  activity at 100 µM: 81.6%
[14]
  activity at 100 µM: 67.6%
[15]
  activity at 100 µM: 78.2%
[16]
  activity at 100 µM: 99.1%

## Cc1cc(C)n2nc(C(=O)NS(=O)(=O)c3c(C)cccc3OC(F)(F)F)nc2n1 [MMV1782402]
[17]
  activity at 25 µM: 96.1%
[10]
  activity at 25 µM: 98.2%
[11]
  activity at 25 µM: 98.8%
[12]
  activity at 25 µM: 91.3%
[18]
  activity at 100 µM: 91.2%
[19]
  activity at 100 µM: 99%
  Percent fungal survival at 100 µM: 92.6%
[20]
  activity at 100 µM: 82%

## CCNC(=O)Nc1cn2c(-c3ncc(CC)cn3)cc(-c3cccnc3)cc2n1 [MMV1782403]
[17]
  activity at 25 µM: 109%
[10]
  activity at 25 µM: 109%
[11]
  activity at 25 µM: 132%
[12]
  activity at 25 µM: 85.2%
[18]
  activity at 100 µM: 84.3%
[19]
  activity at 100 µM: 77.2%
  Percent fungal survival at 100 µM: 79.4%
[20]
  activity at 100 µM: 96.3%

## O=S(=O)(NCB(O)O)c1ccc(-c2nnn[nH]2)cc1C(F)(F)F [MMV1782411]
[17]
  activity at 25 µM: 83.9%
[10]
  activity at 25 µM: 61.4%
[11]
  activity at 25 µM: 112%
[12]
  activity at 25 µM: 78.7%
[18]
  activity at 100 µM: 88.5%
[19]
  activity at 100 µM: 91.5%
  Percent fungal survival at 100 µM: 83.7%
[20]
  activity at 100 µM: 90.2%

## NC(=O)C(c1ccccc1)(c1ccccc1)[C@H]1CCCN(CCc2ccc3c(c2)CCO3)C1 [MMV1782412]
[1]
  activity at 25 µM: 101%
[2]
  activity at 25 µM: 130%
[3]
  activity at 25 µM: 101%
[4]
  activity at 25 µM: 70.7%
[5]
  activity at 100 µM: 68.7%
[6]
  activity at 100 µM: 67.1%
[7]
  activity at 100 µM: 68%
[8]
  activity at 100 µM: 71%
